Source: patent US10550111B2, “Pyrimidine urea compound containing isoxazolines and use thereof” (SHENYANG SINOCHEM AGROCHEMICALS R&D CO., LTD, priority 2014, dated 2020)

Legend:
Assay type in all cases: in vivo
[1] = test system: Echinochloa crus-galli (L.) Beauv.; assay: Bioassay of herbicidal activity in greenhouse (further screening); details: post-emergence
Description: (§1) Determination of herbicidal activity of compounds of the present invention against weeds was carried out by the following procedures:
(§2) Seeds of monocotyledonous and dicotyledonous weeds were sown in nutrition soil in paper pot (7 cm diameter), covered with soil in 1 cm and grown in the greenhouse under good growth conditions (temperature, atmospheric humidity, water supply). The compounds of the present invention as emulsifiable concentrate, were applied in pre-emergence and post-emergence treatment by track sprayer (Engineer Research Ltd., pressure 1.95 kg/cm^2, volume 500 L/hm^2, track speed 1.48 km/h). Pre-emergence treatment was conducted after seeding 24 hours and post-emergence treatment was done when the respective weeds reached predetermined leaf stage (grass weed 2- to 3-leaf stage, broad-leaf weed 2- to 4-leaf stage), the state of growth of the respective weeds were visually observed to determine the growth inhibition rate (%) in accordance with the following evaluation standard.
(§3) Growth inhibition rate (%): 0=no discernible action: 100=all weeds dead or not emerged.

[2] = test system: Setaria glauca (L.) Beauv.; assay: as above; details: post-emergence
Description: as §1, §2, §3

[3] = test system: Abutilon theophrasti Medic.; assay: as above; details: post-emergence
Description: as §1, §2, §3

Zinnia elegans Jacq. = assay: as above; details: post-emergence
Description: as §1, §2, §3

[4] = test system: broad-leaf weeds and grass weeds; assay: General screening of herbicidal activity in greenhouse; details: 1000 g a.i./hm^2;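 also: 0 means no visible effect and 100 means all weeds dead or not emerged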
Description: as §1, §2, §3

| SMILES | Growth inhibition rate, Post-emergence treatment, Echinochloa crus-galli (L.) Beauv. ([1]; dose 7.5 g a.i./hm^2) | Growth inhibition rate, Post-emergence treatment, Echinochloa crus-galli (L.) Beauv. ([1]; dose 15 g a.i./hm^2) | Growth inhibition rate, Post-emergence treatment, Echinochloa crus-galli (L.) Beauv. ([1]; dose 30.0 g a.i./hm^2) | Growth inhibition rate, Post-emergence treatment, Echinochloa crus-galli (L.) Beauv. ([1]; dose 60.0 g a.i./hm^2) | Growth inhibition rate, Post-emergence treatment, Echinochloa crus-galli (L.) Beauv. ([1]; dose 120.0 g a.i./hm^2) | Growth inhibition rate, Post-emergence treatment, Setaria glauca (L.) Beauv. ([2]; dose 7.5 g a.i./hm^2) | Growth inhibition rate, Post-emergence treatment, Setaria glauca (L.) Beauv. ([2]; dose 15 g a.i./hm^2) | Growth inhibition rate, Post-emergence treatment, Setaria glauca (L.) Beauv. ([2]; dose 30.0 g a.i./hm^2) | Growth inhibition rate, Post-emergence treatment, Setaria glauca (L.) Beauv. ([2]; dose 60.0 g a.i./hm^2) | Growth inhibition rate, Post-emergence treatment, Setaria glauca (L.) Beauv. ([2]; dose 120.0 g a.i./hm^2) | Growth inhibition rate, Post-emergence treatment, Abutilon theophrasti Medic. ([3]; dose 7.5 g a.i./hm^2) | Growth inhibition rate, Post-emergence treatment, Abutilon theophrasti Medic. ([3]; dose 15 g a.i./hm^2) | Growth inhibition rate, Post-emergence treatment, Abutilon theophrasti Medic. ([3]; dose 30.0 g a.i./hm^2) | Growth inhibition rate, Post-emergence treatment, Abutilon theophrasti Medic. ([3]; dose 60.0 g a.i./hm^2) | Growth inhibition rate, Post-emergence treatment, Abutilon theophrasti Medic. ([3]; dose 120.0 g a.i./hm^2) | Growth inhibition rate, Post-emergence treatment, Zinnia elegans Jacq. (Zinnia elegans Jacq.; dose 7.5 g a.i./hm^2) | Growth inhibition rate, Post-emergence treatment, Zinnia elegans Jacq. (Zinnia elegans Jacq.; dose 15 g a.i./hm^2) | Growth inhibition rate, Post-emergence treatment, Zinnia elegans Jacq. (Zinnia elegans Jacq.; dose 30.0 g a.i./hm^2) | Growth inhibition rate, Post-emergence treatment, Zinnia elegans Jacq. (Zinnia elegans Jacq.; dose 60.0 g a.i./hm^2) | Growth inhibition rate, Post-emergence treatment, Zinnia elegans Jacq. (Zinnia elegans Jacq.; dose 120.0 g a.i./hm^2) | also measured |
| --- | --- | --- | --- | --- | --- | --- | --- | --- | --- | --- | --- | --- | --- | --- | --- | --- | --- | --- | --- | --- | --- |
| CCOCCOC(=O)C1(C)CC(c2cc(-n3c(=O)cc(C(F)(F)F)n(C)c3=O)c(F)cc2Cl)=NO1 (stereo not drawn) [Compound 15] | 70% | 85% | 100% | 100% | 100% | 75% | 98% | 100% | 100% | 100% | 65% | 100% | 100% | 100% | 100% | 100% | 100% | 100% | 100% | 100% | pre-emergence and post-emergence herbicidal activity against broad-leaf weeds and grass weeds [4]: good |
| CCCOC(=O)C1(C)CC(c2cc(-n3c(=O)cc(C(F)(F)F)n(C)c3=O)c(F)cc2Cl)=NO1 (stereo not drawn) [Compound 7] | 25% | 90% | 98% | 100% | 100% | 55% | 90% | 90% | 100% | 100% | 75% | 98% | 100% | 100% | 100% | 55% | 60% | 75% | 98% | 100% | pre-emergence and post-emergence herbicidal activity against broad-leaf weeds and grass weeds [4]: good |
